Test system: cytoplasmic extract-dependent modification of the 5′ VHL E3 target site
Assay: Peptide competition of cytoplasmic extract-dependent modification of GAL-HIF-1α 344-553, in vitro VHL E3 ubiquitylation
Type: biochemical, human
Details: 12.5 μM peptide, RCC4 cytoplasmic extract
Procedure: The E1 activating enzyme used in ubiquitylation assays was either obtained from Affiniti Research (Exeter, UK) or purified from BL21 (DE3) E. coli transfected with plasmid expressing His6-tagged mouse E1. His6-E1 was purified by Ni^2+-agarose affinity chromatography. After dialysis against phosphate buffered saline, glycerol was added to 10% (vol/vol) and 25 ng/μl aliquots stored at −80° C. Human CDC34 recombinant E2 enzyme was from Affiniti Research (Exeter, UK). VHL E3 was obtained by anti-HA immunoprecipitation from stably transfected 7860-VHLHA cell lysates (Iliopoulos et al). GAL-HIF-1α substrate was prepared by anti-GAL immunoprecipitation from [^35S] methionine-labeled TnT rabbit reticulocyte (Promega) translates. Each 40 μl ubiquitylation reaction consisted of 4 μl of 5 mg/ml ubiquitin, 4 μl of 10×ATP regenerating system (20 mM Tris pH7.5, 10 mM ATP, 10 mM magnesium acetate, 300 mM creatine phosphate, 0.5 mg/ml creatine phosphokinase), 2 μl, E1, 3 μl E2, 6 μl VHL E3 immunopurified on protein G sepharose, 6 μl GAL-HIF-1α substrate immunopurified on agarose beads. Reactions were incubated at 30° C. for 2 h with occasional mixing, stopped by the addition of SDS sample buffer and analysed by SDS-PAGE and autoradiography. Cytoplasmic extract-based ubiquitylation assays have been previously described (Cockman).
It has been shown above that the 3′ VHL E3 target site responds to oxygen level via hydroxylation at proline residue 564. This praline residue forms part of a potential motif conserved between the 5′ and 3′ target sites. Mutation of the corresponding proline residue (P402A) in the 5′ target site also results in functional inactivation. It was possible therefore that proline residue 402 was also a target for regulatory hydroxylation, To test this we asked whether polypeptides corresponding to the 3′ VHL E3 target site could interfere with the cytoplasmic extract-dependent modification of the 5′ VHL E3 target site. […]

Row | Substance | competition of cytoplasmic extract effect on VHL-dependent ubiquitylation of GAL 344-553
1 | 19:Pro564Hyp: polypeptide (HIF-1α residues 556-574) containing a trans-4-hydroxy-S-proline residue at position 564 | unable to compete
2 | 19:WT: polypeptide comprising HIF-1α residues 556 to 574 | completely ablate the cytoplasmic extract effect

From patent US9844546B2, “Antibody against human HIF hydroxylase” (OXFORD UNIVERSITY INNOVATION LIMITED, priority 2001, dated 2017)
